Source: ChEMBL document CHEMBL1938312, “Design and combinatorial synthesis of a novel kinase-focused library using click chemistry-based fragment assembly” (Bioorg Med Chem Lett, 2012)
Calls of active or inactive are those of the source. No cut-off for these calls is given here.

What was measured:
[1] = biological target: Tyrosine-protein kinase ABL1 (Homo sapiens) (UniProt P00519); test: Inhibition of Abl at 10 uM by colorimetric analysis
[2] = biological target: T1, Ephrin type-B receptor 4 (Homo sapiens) (UniProt P54760); test: Inhibition of EPHB4 at 10 uM by colorimetric analysis
T1 sequence (whole entry): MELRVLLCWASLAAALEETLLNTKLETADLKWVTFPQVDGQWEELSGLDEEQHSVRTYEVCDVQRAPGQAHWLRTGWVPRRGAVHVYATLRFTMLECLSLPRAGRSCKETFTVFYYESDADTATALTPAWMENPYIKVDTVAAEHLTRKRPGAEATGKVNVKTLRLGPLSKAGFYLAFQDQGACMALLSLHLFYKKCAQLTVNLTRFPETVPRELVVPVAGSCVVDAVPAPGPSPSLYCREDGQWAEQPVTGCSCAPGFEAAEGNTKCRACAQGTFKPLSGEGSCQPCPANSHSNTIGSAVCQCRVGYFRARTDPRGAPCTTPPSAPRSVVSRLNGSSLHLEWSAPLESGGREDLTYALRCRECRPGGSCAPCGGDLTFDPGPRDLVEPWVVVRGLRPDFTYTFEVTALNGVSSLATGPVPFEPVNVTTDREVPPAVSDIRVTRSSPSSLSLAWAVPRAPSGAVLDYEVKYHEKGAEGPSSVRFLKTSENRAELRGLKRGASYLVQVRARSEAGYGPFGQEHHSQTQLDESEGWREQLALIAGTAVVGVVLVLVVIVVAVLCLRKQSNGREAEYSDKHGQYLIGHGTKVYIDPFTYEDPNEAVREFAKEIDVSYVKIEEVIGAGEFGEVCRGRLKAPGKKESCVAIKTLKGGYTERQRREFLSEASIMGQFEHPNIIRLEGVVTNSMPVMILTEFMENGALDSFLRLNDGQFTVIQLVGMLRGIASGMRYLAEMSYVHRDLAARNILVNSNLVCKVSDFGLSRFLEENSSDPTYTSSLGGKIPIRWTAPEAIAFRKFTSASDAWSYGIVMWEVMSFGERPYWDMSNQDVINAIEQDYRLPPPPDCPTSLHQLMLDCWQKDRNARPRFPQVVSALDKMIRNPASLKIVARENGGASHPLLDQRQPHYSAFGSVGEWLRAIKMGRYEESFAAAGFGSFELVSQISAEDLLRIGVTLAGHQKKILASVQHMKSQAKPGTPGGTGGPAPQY

[3] = biological target: Tyrosine-protein kinase Lck (Homo sapiens) (UniProt P06239); test: Inhibition of LCK at 10 uM by colorimetric analysis
Sequence of Tyrosine-protein kinase Lck (Homo sapiens) (P06239 2-509 limits assumed): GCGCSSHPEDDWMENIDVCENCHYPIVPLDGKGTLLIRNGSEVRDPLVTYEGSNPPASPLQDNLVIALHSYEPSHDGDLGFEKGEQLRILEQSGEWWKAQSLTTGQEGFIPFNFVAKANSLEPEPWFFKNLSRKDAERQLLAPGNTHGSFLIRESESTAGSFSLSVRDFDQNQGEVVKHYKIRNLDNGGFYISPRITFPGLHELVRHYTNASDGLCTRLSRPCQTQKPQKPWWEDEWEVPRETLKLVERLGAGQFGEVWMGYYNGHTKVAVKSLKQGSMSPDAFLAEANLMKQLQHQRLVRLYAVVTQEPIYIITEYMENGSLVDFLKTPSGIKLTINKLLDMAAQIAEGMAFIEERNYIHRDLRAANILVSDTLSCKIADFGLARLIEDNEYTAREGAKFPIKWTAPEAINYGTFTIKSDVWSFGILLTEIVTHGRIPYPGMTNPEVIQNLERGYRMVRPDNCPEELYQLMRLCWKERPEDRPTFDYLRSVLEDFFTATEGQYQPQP

[4] = biological target: Platelet-derived growth factor receptor alpha (Homo sapiens) (UniProt P16234); test: Inhibition of PDGFRalpha at 10 uM by colorimetric analysis
Sequence of Platelet-derived growth factor receptor alpha (Homo sapiens) (P16234 whole entry): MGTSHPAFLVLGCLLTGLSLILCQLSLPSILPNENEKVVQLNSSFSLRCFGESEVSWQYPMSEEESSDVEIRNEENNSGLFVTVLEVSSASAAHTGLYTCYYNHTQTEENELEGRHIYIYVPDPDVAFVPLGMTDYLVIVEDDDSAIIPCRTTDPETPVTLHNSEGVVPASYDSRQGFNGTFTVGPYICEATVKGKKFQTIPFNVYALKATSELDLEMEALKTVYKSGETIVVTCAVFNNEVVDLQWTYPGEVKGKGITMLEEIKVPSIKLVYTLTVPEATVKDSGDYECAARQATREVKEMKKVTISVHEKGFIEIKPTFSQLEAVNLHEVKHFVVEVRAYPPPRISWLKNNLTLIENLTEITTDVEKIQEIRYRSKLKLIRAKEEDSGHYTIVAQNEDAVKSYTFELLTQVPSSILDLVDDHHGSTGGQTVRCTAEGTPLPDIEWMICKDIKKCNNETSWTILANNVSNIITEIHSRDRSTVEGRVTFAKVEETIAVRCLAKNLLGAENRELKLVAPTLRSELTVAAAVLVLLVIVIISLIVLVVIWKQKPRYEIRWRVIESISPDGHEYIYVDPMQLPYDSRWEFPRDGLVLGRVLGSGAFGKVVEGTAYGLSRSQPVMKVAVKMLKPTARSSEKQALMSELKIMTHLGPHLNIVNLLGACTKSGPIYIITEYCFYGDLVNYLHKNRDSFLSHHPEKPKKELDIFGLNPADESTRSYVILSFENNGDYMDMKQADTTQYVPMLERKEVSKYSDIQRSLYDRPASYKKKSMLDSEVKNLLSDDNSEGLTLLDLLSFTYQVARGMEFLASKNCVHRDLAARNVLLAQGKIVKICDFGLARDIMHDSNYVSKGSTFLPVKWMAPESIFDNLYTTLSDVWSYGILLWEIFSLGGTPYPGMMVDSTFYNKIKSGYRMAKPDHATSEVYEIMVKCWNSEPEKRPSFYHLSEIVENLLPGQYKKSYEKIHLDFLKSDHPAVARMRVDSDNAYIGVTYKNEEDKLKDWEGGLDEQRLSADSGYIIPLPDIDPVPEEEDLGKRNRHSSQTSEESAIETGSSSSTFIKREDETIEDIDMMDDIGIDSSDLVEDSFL

[5] = biological target: Proto-oncogene tyrosine-protein kinase Src (Homo sapiens) (UniProt P12931); test: Inhibition of SRC at 10 uM by colorimetric analysis
[6] = biological target: High affinity nerve growth factor receptor (Homo sapiens) (UniProt P04629); test: Inhibition of TRKA at 10 uM by colorimetric analysis
Sequence of High affinity nerve growth factor receptor (Homo sapiens) (P04629 33-796 limits assumed): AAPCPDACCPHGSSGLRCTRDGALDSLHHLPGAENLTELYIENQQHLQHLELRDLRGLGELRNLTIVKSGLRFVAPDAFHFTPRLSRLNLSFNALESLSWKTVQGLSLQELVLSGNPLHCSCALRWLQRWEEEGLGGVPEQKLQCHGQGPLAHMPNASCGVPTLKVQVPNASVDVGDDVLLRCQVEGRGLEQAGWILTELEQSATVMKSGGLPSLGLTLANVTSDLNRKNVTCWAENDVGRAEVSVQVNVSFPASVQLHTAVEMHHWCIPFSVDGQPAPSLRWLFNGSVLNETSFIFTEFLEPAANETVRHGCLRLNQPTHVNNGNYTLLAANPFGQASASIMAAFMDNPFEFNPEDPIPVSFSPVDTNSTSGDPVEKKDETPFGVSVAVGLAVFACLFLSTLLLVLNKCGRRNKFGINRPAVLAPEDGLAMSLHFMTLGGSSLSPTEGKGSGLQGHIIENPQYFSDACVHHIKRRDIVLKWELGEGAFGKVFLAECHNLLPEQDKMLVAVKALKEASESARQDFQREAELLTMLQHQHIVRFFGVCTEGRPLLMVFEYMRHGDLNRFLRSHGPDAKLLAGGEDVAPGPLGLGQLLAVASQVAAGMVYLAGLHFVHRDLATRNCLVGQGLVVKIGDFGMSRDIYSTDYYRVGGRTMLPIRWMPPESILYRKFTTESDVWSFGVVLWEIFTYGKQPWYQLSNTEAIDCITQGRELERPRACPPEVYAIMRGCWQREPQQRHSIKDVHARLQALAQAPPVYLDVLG

[7] = biological target: 5'-AMP-activated protein kinase subunit gamma-1 (Homo sapiens) (UniProt P54619); test: Inhibition of AMPKgamma1 at 10 uM by colorimetric analysis
Sequence of 5'-AMP-activated protein kinase subunit gamma-1 (Homo sapiens) (P54619 whole entry): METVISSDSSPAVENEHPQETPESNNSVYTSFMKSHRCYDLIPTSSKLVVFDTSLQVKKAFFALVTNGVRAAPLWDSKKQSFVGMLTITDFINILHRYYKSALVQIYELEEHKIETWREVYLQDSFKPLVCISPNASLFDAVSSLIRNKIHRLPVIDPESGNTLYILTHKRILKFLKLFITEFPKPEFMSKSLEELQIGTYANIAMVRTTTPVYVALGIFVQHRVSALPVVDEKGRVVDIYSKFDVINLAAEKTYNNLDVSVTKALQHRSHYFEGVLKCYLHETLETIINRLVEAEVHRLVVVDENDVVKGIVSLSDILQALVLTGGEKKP

[8] = biological target: T2, Aurora kinase A (Homo sapiens) (UniProt O14965); test: Inhibition of Aurora A at 10 uM by colorimetric analysis
T2 sequence (whole entry): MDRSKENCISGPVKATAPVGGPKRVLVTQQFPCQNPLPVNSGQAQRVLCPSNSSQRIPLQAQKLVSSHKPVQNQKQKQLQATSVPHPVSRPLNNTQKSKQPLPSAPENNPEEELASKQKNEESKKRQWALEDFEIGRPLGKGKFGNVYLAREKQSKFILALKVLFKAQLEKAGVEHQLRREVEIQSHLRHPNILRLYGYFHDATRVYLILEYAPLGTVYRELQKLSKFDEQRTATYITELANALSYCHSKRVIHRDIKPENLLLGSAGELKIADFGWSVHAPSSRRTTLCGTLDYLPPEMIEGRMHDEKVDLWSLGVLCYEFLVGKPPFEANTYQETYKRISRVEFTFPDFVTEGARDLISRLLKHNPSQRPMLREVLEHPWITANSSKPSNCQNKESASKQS

[9] = biological target: T3, Calcium/calmodulin-dependent protein kinase type IV (Homo sapiens) (UniProt Q16566); test: Inhibition of CaMK4 at 10 uM by colorimetric analysis
T3 sequence (whole entry): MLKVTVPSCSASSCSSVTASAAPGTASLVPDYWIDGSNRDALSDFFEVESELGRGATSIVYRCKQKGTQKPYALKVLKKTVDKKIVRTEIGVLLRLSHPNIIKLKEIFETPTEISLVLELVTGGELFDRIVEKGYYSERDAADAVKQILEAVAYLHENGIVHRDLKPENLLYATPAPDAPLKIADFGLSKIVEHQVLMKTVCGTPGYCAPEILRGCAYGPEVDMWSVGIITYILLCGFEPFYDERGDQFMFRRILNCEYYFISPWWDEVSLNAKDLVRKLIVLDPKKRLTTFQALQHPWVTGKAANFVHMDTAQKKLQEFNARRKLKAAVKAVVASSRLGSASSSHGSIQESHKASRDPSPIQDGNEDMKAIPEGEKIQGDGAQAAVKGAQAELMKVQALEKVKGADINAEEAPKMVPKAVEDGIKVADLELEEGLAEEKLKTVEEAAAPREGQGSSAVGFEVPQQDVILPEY

[10] = biological target: Casein kinase I isoform epsilon (Homo sapiens) (UniProt P49674); test: Inhibition of CK1epsilon at 10 uM by colorimetric analysis
Sequence of Casein kinase I isoform epsilon (Homo sapiens) (P49674 whole entry, looked up, canonical isoform): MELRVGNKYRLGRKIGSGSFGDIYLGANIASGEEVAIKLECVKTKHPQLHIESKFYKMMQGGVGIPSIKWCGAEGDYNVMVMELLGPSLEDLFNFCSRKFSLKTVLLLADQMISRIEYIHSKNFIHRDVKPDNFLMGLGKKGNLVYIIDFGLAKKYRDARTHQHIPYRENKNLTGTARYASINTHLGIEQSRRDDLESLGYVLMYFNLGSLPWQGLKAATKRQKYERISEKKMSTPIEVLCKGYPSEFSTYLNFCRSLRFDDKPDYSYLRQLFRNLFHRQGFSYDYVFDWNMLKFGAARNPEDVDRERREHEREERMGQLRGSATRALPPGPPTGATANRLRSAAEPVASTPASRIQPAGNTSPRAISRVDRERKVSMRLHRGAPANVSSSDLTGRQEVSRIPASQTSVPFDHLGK

[11] = biological target: Glycogen synthase kinase-3 beta (Homo sapiens, UniProt P49841); test: Inhibition of GSK3-beta at 10 uM by colorimetric analysis
Sequence of Glycogen synthase kinase-3 beta (P49841 whole entry, looked up): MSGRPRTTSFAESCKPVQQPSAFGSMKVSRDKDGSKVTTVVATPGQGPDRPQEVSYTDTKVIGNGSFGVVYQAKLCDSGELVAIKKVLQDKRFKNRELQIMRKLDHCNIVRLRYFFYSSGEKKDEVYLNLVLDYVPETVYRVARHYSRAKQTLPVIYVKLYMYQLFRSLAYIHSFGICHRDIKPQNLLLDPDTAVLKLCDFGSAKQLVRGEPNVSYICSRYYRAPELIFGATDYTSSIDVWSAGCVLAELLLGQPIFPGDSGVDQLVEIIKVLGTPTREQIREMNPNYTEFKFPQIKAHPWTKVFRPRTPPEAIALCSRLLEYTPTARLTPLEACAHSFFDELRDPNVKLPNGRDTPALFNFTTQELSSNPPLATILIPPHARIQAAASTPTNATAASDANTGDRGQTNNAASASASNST

[12] = biological target: MAP kinase-activated protein kinase 2 (Homo sapiens) (UniProt P49137); test: Inhibition of MAPKAPK2 at 10 uM by colorimetric analysis
Sequence of MAP kinase-activated protein kinase 2 (Homo sapiens) (P49137 whole entry, looked up): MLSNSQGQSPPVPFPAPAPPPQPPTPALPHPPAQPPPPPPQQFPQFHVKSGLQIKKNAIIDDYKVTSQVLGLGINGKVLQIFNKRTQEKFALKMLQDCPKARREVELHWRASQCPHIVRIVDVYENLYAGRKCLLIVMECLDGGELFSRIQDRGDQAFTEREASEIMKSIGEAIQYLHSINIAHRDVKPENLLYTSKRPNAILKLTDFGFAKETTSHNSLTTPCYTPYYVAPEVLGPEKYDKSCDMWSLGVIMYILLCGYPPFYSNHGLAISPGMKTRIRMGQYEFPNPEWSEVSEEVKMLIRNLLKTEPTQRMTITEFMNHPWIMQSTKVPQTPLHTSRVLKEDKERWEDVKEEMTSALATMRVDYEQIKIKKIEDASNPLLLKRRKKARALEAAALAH

[13] = biological target: Ribosomal protein S6 kinase beta-1 (Homo sapiens) (UniProt P23443); test: Inhibition of p70S6K at 10 uM by colorimetric analysis
[14] = biological target: Serine/threonine-protein kinase PAK 4 (Homo sapiens) (UniProt O96013); test: Inhibition of PAK4 at 10 uM by colorimetric analysis
Sequence of Serine/threonine-protein kinase PAK 4 (Homo sapiens) (O96013 whole entry, looked up): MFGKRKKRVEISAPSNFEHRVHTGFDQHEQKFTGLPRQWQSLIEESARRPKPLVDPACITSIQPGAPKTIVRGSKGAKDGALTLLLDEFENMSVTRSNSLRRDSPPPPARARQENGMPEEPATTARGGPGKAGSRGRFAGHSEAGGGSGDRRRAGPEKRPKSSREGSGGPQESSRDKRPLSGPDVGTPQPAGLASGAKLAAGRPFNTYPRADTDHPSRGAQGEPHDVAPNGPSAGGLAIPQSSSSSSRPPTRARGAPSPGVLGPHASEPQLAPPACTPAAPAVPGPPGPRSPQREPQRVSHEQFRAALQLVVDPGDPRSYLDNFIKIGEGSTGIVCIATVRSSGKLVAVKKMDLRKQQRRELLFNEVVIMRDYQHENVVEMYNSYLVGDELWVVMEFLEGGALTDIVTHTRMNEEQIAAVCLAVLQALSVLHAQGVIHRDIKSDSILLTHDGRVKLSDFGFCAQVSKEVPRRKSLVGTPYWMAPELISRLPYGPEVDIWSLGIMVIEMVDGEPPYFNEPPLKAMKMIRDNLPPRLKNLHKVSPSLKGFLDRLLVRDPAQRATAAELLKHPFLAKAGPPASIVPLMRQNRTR

[15] = biological target: cAMP-dependent protein kinase catalytic subunit alpha (Homo sapiens) (UniProt P17612); test: Inhibition of PKACa at 10 uM by colorimetric analysis
[16] = biological target: 3-phosphoinositide-dependent protein kinase 1 (Homo sapiens) (UniProt O15530); test: Inhibition of PDK1 at 10 uM by colorimetric analysis

Row | inhibition [1] | inhibition [2] | inhibition [3] | inhibition [4] | inhibition [5] | inhibition [6] | inhibition [7] | inhibition [8] | inhibition [9] | inhibition [10] | inhibition [11] | inhibition [12] | inhibition [13] | inhibition [14] | inhibition [15] | inhibition [16] | Compound
1 | inactive | inactive | inactive | inactive | inactive | inactive | Active | Active | Active | Active | Active | Active | Active | Active | Active | Active | Clc1cccc(-n2nncc2-c2ccncc2)c1
2 | inactive | inactive | inactive | inactive | inactive | inactive | Active | Active | Active | Active | Active | Active | Active | Active | Active | Active | Clc1ccc(-n2cc(-c3ccncc3)nn2)cc1
3 | inactive | inactive | inactive | inactive | inactive | inactive | Active | Active | Active | Active | Active | Active | Active | Active | Active | Active | Clc1ccc(-n2nncc2-c2ccncc2)cc1
4 | inactive | inactive | inactive | inactive | inactive | inactive | Active | Active | Active | Active | Active | Active | Active | Active | Active | Active | Clc1cccc(-n2cc(-c3ccncc3)nn2)c1
